Source: patent US6300353A, “Azoles for treatment of fungal infections” (Basilea Pharmaceutica AG, a Swiss Company, priority 1998, dated 2001)
Read-outs that look alike come from different tables or passages of the source.

What was measured:
Aspergillus fumigatus [1] = assay: In vivo efficacy, systemic aspergillosis model; details: in Rattus norvegicus, 336 h
[2] = Conversion of compounds of formula (I') to compounds of formula (II) in human plasma; format: in vitro ADME; details: 37° C.; for remaining at 5 min / metabolised at 5 min: incubation time 5 min; for remaining at 5 min: read-out: Observed (%) Comp. (I'); for metabolised at 5 min: read-out: Observed (%) Compound (II)
Experimental: In addition, the azole of formula I' are chemically stable in aqueous solution at room temperature more than three days, but are efficiently converted into compounds of formula (II) in either mouse, rat, monkey or human plasma. The conversion of representatives of the new azole compounds of the general formula (I') to compounds of formula (II) in human plasma are shown in Table 4. The compounds of formula (I') were incubated with human plasma at a concentration of 10.quadrature.g/ml at 37° C. for up to 20 min.

Aspergillus fumigatus [3] = assay: In vivo efficacy, pulmonary aspergillosis model; details: in Rattus norvegicus, 336 h
physchem = details: water
Candida albicans = assay: In vivo efficacy, systemic candidiasis model; details: in Rattus norvegicus, 336 h
CYP2C9 = CYP2C9 (Homo sapiens, UniProt P11712); assay: In vitro P450 inhibitory activity (CYP2C9, tolbutamide 4-hydroxylation), human liver microsomes
Sequence of CYP2C9 (P11712 whole entry): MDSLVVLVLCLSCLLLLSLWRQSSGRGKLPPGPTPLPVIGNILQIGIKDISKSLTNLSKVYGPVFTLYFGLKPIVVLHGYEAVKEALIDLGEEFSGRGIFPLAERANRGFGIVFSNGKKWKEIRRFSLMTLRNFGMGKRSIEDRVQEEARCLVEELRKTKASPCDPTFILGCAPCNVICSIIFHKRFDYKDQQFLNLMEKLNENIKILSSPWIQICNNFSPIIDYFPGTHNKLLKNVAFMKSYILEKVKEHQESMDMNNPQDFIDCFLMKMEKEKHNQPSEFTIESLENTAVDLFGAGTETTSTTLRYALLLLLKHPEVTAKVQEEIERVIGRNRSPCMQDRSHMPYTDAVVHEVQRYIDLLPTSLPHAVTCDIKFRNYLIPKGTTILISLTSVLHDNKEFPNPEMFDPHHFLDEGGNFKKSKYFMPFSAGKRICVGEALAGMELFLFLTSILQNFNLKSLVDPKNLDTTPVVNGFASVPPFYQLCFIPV
Experimental: Each azole compound at different concentrations was incubated with a specific substrate for each CYP, human liver microsomes and NADPH at 37° C. […] The substrate concentrations and incubation conditions were as follows:

CYP3A4 = CYP3A4 (Homo sapiens, UniProt P08684); assay: In vitro P450 inhibitory activity (CYP3A4, midazolam 1-hydroxylation), human liver microsomes; format: in vitro ADME; details: midazolam 10 μM, 10 min, read-out: P450 inhibition IC50, CYP 3A4
Sequence of CYP3A4 (P08684 whole entry): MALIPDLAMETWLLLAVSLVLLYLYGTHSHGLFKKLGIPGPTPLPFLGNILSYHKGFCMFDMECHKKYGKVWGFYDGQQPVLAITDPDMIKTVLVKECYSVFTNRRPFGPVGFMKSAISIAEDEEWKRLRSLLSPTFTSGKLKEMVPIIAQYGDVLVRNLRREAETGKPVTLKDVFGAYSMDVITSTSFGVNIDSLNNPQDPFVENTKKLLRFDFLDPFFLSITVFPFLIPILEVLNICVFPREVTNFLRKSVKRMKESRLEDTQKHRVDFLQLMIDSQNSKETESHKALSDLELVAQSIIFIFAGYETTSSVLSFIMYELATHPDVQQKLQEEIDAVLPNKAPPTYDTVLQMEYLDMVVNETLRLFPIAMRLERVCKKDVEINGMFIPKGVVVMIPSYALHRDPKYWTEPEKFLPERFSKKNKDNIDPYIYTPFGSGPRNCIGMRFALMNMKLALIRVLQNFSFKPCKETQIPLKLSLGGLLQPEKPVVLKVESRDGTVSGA

[4] = iv, read-out: Effective dose 50% (ED50), systemic aspergillosis, i.v.
[5] = iv, read-out: Effective dose 50% (ED50), pulmonary aspergillosis, i.v.
[6] = po, read-out: Effective dose 50% (ED50), systemic candidiasis, p.o.

In the case of `CNCC(=O)Oc1c(C)cc(C[n+]2cnn(C[C@](O)(c3cc(F)ccc3F)[C@@H](C)c3nc(-c4ccc(C#N)cc4)cs3)c2)cc1C.[Br-]` [Example 1, 1-{(2R,3R)-3-[4-(4-cyano-phenyl)-thiazol-2-yl]-2-(2,5-difluoro-phenyl)-2-hydroxy-butyl}-4-(3,5-dimethyl-4-methylaminoacetoxy-benzyl)-1H-[1,2,4]triazol-4-ium bromide], the ED50 (Aspergillus fumigatus [1]; [4]) is reported as 3 µmol/kg, the ED50 (Aspergillus fumigatus [1]; po, read-out: Effective dose 50% (ED50), systemic aspergillosis, p.o.) is reported as 5.8 µmol/kg and the half-life [2] is reported as < 1 min. The remaining at 5 min [2] was < 5%, the metabolised at 5 min [2] was 96% and the ED50 (Aspergillus fumigatus [3]; [5]) was 8 ± 4.2 µmol/kg. It also gave an ED50 (Aspergillus fumigatus [3]; po, read-out: Effective dose 50% (ED50), pulmonary aspergillosis, p.o.) of 7.4 ± 3.8 µmol/kg, a solubility (physchem) of 22 mg/mL and an ED50 (Candida albicans; iv, read-out: Effective dose 50% (ED50), systemic candidiasis, iv.) of 5.3 µmol/kg. For the same compound, the ED50 (Candida albicans; [6]) was 5.3 µmol/kg.

With `CNCC(=O)Oc1c(C)cc(C[n+]2cnn(C[C@](O)(c3cc(F)c(F)cc3F)[C@@H](C)c3nc(-c4ccc(C#N)cc4)cs3)c2)cc1C.Cl.[Br-]` [Example 3, 1-[(2R,3R)-3-[4-(4-cyanophenyl)thiazol-2-yl]-2-hydroxy-2-(2,4,5-trifluorophenyl)butyl]-4-(3,5-dimethyl-4-methylaminoacetoxybenzyl)-1H-[1,2,4]triazol-4-ium bromide hydrochloride] the half-life [2] was < 1 min, the remaining at 5 min [2] was < 5% and the metabolised at 5 min [2] was 89%. The solubility (physchem) was > 7 mg/mL.

Compound `C[C@@H](c1nc(-c2ccc(C#N)cc2)cs1)[C@](O)(Cn1cncn1)c1cc(F)ccc1F` [Example 4] has an IC50 (CYP2C9) of 35.1 µM.

With `C[C@@H](c1nc(-c2ccc(C#N)cc2)cs1)[C@](O)(Cn1cncn1)c1cc(F)c(F)cc1F` [Example 5] the IC50 (CYP2C9) was 18.4 µM and the IC50 (CYP3A4) was 23 µM.

With `OC(Cn1cncn1)(Cn1cncn1)c1ccc(F)cc1F` [Fluconazole, reference compound] the ED50 (Candida albicans; [6]) was 1.4 µmol/kg.

`CCC(C)n1ncn(-c2ccc(N3CCN(c4ccc(OCC5COC(Cn6cncn6)(c6ccc(Cl)cc6Cl)O5)cc4)CC3)cc2)c1=O` (stereo not shown) [Itraconazole, reference compound] gave an ED50 (Aspergillus fumigatus [1]; [4]) of 4 µmol/kg, an IC50 (CYP2C9) of 25.7 µM and an ED50 (Aspergillus fumigatus [3]; [5]) of 2 ± 1.1 µmol/kg. It also gave an ED50 (Candida albicans; [6]) of 3.9 ± 2.2 µmol/kg.
